Literature values as cited in patent publication US20170042798A1, “USE OF BIDENS EXTRACT TO REDUCE SIGNS OF SKIN AGING” (KIMBERLY-CLARK WORLDWIDE ,INC., priority 2014, published 2017).

System: 3T3-L1 cells
Conditions: literature, Nutr. Res. 32(6): 439-447

In the case of Fucoidan, the adipogenesis is given as “inhibit adipogenesis”.
